Assay results as given in patent US5137906A, “Treatment of central nervous system disorders with benzimidazole angiotensin-II receptor antagonists” (E. I. Du Pont de Nemours and Company, priority 1990, dated 1992).
Entries after “also recorded” stand apart in the source; their conditions may differ.

Experiments:
[1] = tested on: AII receptor subtype-1 (AII-1); details: cited from earlier work
[2] = tested on: AII binding sites in the brain; test: binding of AII antagonists to sections of brain slices; details: in words
[3] = tested on: AII receptor subtype-2 (AII-2); details: cited from earlier work
[4] = tested on: renin-induced disruption of passive avoidance retention; test: renin-disrupted passive avoidance retention; format: in vivo, male Sprague-Dawley rats; details: for protection against / prevention of renin-induced amnesia: co-administered with renin IVT
Protocol: Experimentally naive male Sprague-Dawley rats 100 to 125 days old (Charles River Breeding Laboratories, Kingston, N.Y.), weighing between 175 to 200 gm were used. The animals were housed four per cage (45.0 L×20.0 H×26.0 W cm) with free access to food and water. They were maintained on a 12 h light/dark cycle (lights on 0600 h) and at a room temperature of 22°±1° C. with relative humidity of 50±10%.
The experimental sessions were conducted in a two-compartment passive avoidance box. One compartment, made of clear plastic with a perforated clear plastic floor, measured 21(L)×24.5(H)×17(W) cm and was illuminated with a 60 watt incandescent light bulb placed 36 cm above the floor. The other compartment, made of black plastic, measured 30.5 (L)×20.3 (H)×21.5 (W) cm with a floor made of 4 mm stainless steel rods spaced 1.2 cm apart. A grid floor shocker (Coulbourn Instruments) was connected to the steel rods and provided scrambled footshock. The two compartments were separated by a solenoid-operated slide door (Lafayette Instrument Co., Lafayette, Ind.). An electronic counter (Coulbourn Instruments), triggered by the opening or closing of the slide door, recorded acquisition and retention latencies (latencies were defined as the time it took an animal to enter the dark compartment).
Passive avoidance training began by placing the rat into the clear compartment of the two-compartment passive avoidance box. Following a 10 sec delay, the slide door for the dark compartment was raised. Once the rat moved completely into the dark compartment (all four paws on the shock grid floor) the slide door was lowered, and after a 10 sec. delay, a 1.0 mA shock was applied to the grid floor for three sec. A second three s shock was delivered after an additional 10 sec delay. The rats were immediately removed from the dark compartment and returned to their home cage. A retention test was given 24 h later. It proceeded in the same manner as the training session except that no shock was applied to the grid floor when the rats were provided access to the dark compartment for a maximum of 300 sec.
Doses are expressed as the free base weight of each compound.

uphill avoidance = details: in words; 30 mg/kg PO, acute; cited from earlier work
[5] = tested on: scopolamine-induced amnesia of a PA response; details: in words; 1, 3 and 10 mg/kg PO three times per day; cited from earlier work
[6] = tested on: ACh in the striatum and hypothalamus; details: in words; acute or repeated administration; cited from earlier work
[7] = tested on: scopolamine-induced impairment of eight arm radial maze performance; details: in words; 3 mg/kg IP; cited from earlier work
[8] = tested on: anticholinergic scopolamine-induced disruption of performance; details: in words; daily treatment; cited from earlier work
[9] = tested on: light/dark habituation performance; details: in words; subchronic treatment; cited from earlier work
avoidance learning = details: in words, cited from earlier work
[10] = tested on: passive avoidance (PA) response; details: in words; injected into dorsal neostriatum; cited from earlier work
[11] = tested on: release of ACh in entorhinal cortex from rat brain; details: in words; cited from earlier work
[12] = tested on: AII in cerebrospinal fluid (CSF); details: after renin into lateral ventricle; increased from 40; cited from earlier work
[13] = compound 10 μg/5 μL IVT + renin 1.0 μg/5 μL IVT
[14] = compound 30 μg/5 μL IVT + renin 1.0 μg/5 μL IVT
[15] = compound 100 μg/5 μL IVT + renin 1.0 μg/5 μL IVT

For `O[C@H](CS)[C@H](O)CS` (racemic) [DTT, dithiothreitol], which “inactivation of AII-1 receptor by DTT” value ([1]; in words) is on record?
The value was “particularly sensitive to inactivation”.

What about the “sensitivity of AII binding sites in the brain, minor clusters (AII-1 receptors)” value ([2]; AII-1) of the same molecule?
The value was “DTT-sensitive”.

What about the “sensitivity of the majority of AII binding sites in the brain (AII-2 receptors)” value [2] of the same molecule?
Its value is “DTT-sensitive”.

What about the “inactivation of AII-2 receptor by DTT” value ([3]; in words) of the same molecule?
Its value is “resistant”.

Which results are given for `CCCc1nc(C(F)(F)F)c(C(=O)O)n1Cc1ccc(-c2ccccc2-c2nnn[nH]2)cc1` [Compound C, 2-n-propyl-1-[(2'-(1H-tetrazol-5-yl)biphenyl-4-yl)methyl]-4-trifluoromethylimidazole-5-carboxylic acid]?
Median Retention Latency [4, 13]: 264 s; Median Retention Latency [4, 14]: 300 s; Median Retention Latency [4, 15]: 34.5 s; protection against / prevention of renin-induced amnesia ([4]; in words): protected against the amnesia

Which “Median Retention Latency” value [4, 14] does the source give for `CCCc1nc(C(F)(F)F)c(CO)n1Cc1ccc(-c2ccccc2-c2nnn[nH]2)cc1` [Compound D, 2-n-propyl-5-hydroxymethyl-1-[(2'-(1H-tetrazol-5-yl)biphenyl-4-yl)methyl]-4-trifluoromethylimidazole] here?
The value was 242 s.

And the “Median Retention Latency” value [4, 15]?
Its value is 10 s.

And the “protection against / prevention of renin-induced amnesia” value ([4]; in words)?
Its value is “protected against the amnesia”.

What does the source list for `Cc1cc(Cn2cnc3c2CC(C(=O)O)N(C(=O)C(c2ccccc2)c2ccccc2)C3)ccc1N` (stereo not drawn) [EXP655, 1-(4-amino-3-methylphenyl)methyl-5-diphenylacetyl-4,5,6,7-tetrahydro-1H-imidazo[4,5-c]pyridine-6-carboxylic acid]?
IC50 ([1]; AII-1 site, rat adrenal cortex, Chiu et al. 1989, read-out: inhibitory constant IC50 value): ~300 µM; affinity/specificity for the AII-1 site ([1]; in words, rat adrenal cortex): very low affinity; Median Retention Latency ([4]; compound 0.1 μg/5 μL IVT + renin 1.0 μg/5 μL IVT): 19 s; Median Retention Latency ([4]; compound 0.3 μg/5 μL IVT + renin 1.0 μg/5 μL IVT): 22 s; Median Retention Latency ([4]; compound 1.0 μg/5 μL IVT + renin 1.0 μg/5 μL IVT): 15 s; Median Retention Latency ([4]; compound 3.0 μg/5 μL IVT + renin 1.0 μg/5 μL IVT): 29 s; Median Retention Latency [4, 13]: 15 s; Median Retention Latency [4, 14]: 67 s; Median Retention Latency [4, 15]: 16 s; protection against / prevention of renin-induced amnesia ([4]; in words): much less effective in preventing the amnesia; sensitivity of the majority of AII binding sites in the brain (AII-2 receptors) [2]: EXP655-sensitive; IC50 ([3]; AII-2 site, rat adrenal cortex, Chiu et al. 1989, read-out: inhibitory constant IC50 value): ~0.1 µM

Which results are given for `CCOC(=O)C(CCc1ccccc1)NC(C)C(=O)N1CC2(CC3CCC2CC3)CC1C(=O)O` (stereo not drawn) [Hoe 288]?
performance during retention testing, uphill avoidance (uphill avoidance): improved performance during retention testing; effect on scopolamine-induced PA amnesia [5]: partially reversed the amnesia; change in ACh in the striatum and hypothalamus [6]: significant decrease in ACh in the striatum and hypothalamus; effect on muscarinic receptor blockade impairment of performance [7]: partially antagonized the effects of muscarinic receptor blockade on performance

With `C[C@H](CS)C(=O)N1CCC[C@H]1C(=O)O` [captopril] as the molecule, how does the “effect on scopolamine-induced disruption of performance” value [8] read?
Its value is “prevented”.

What about the “rate of acquisition of light/dark habituation performance” value [9] of the same molecule?
The value was “increased the rate of acquisition”.

What about the “effect on renin-induced avoidance disruption” value (avoidance learning; IVT prior to renin injection) of the same molecule?
Its value is “prevented the renin-induced avoidance disruption”.

What about the “prevention of renin-induced amnesia in PA task by IVT captopril” value ([4]; in words, own laboratory, captopril IVT) of the same molecule?
Its value is “prevented”.

For `NC(=O)[C@@H]1CCCN1C(=O)[C@H](Cc1cnc[nH]1)NC(=O)[C@@H]1CCC(=O)N1` [thyrotropin releasing hormone], which “effect on retention of a PA response” value [10] is on record?
Its value is “no effect”.

Which results are given for “Angiotensin II (DRVYIHPF; Angiotensin-2; UniProt P01019 25-32, looked up) [AII]”?
effect on basal levels of ACh release [11]: without effects on basal levels; effect on potassium-stimulated release of ACh [11]: reduced potassium-stimulated release of ACh; effect on retention of a PA response [10]: disruption in retention of a PA response

For “[1-sarcosine, 8-threonine]angiotensin II”, which “antagonism of AII effect on ACh release” value [11] is on record?
The value was “antagonized”.

Which “effect on retention of a PA response” value [10] does the source give for lysine-8-vasopressin here?
The value was “no effect”.

B1: renin: Renin (Sigma Chemicals), a stimulator of endogenous AII biosynthesis (protein, UniProt P00797 67-406, looked up)
Renin: LTLGNTTSSVILTNYMDTQYYGEIGIGTPPQTFKVVFDTGSSNVWVPSSKCSRLYTACVYHKLFDASDSSSYKHNGTELTLRYSTGTVSGFLSQDIITVGGITVTQMFGEVTEMPALPFMLAEFDGVVGMGFIEQAIGRVTPIFDNIISQGVLKEDVFSFYYNRDSENSQSLGGQIVLGGSDPQHYEGNFHYINLIKTGVWQIQMKGVSVGSSTLLCEDGCLALVDTGASYISGSTSSIEKLMEALGAKKRLFDYVVKCNEGPTLPDISFHLGGKEYTLTSADYVFQESYSSKKLCTLAIHAMDIPPPTGPTWALGATFIRKFYTEFDRRNNRIGFALAR
With B1 as the molecule, how does the “effect on avoidance learning” value (avoidance learning; renin into lateral ventricle (IVT)) read?
Its value is “disruption of avoidance learning”.

What about the “AII in cerebrospinal fluid” value [12] of the same molecule?
The value was “about 5000 fmol per mL”.

And the “Median Retention Latency” value ([4]; Table 1, renin 0.1 μg/5 μL IVT)?
The value was 254 s.

What about the “Median Retention Latency” value ([4]; Table 1, renin 0.5 μg/5 μL IVT) of the same molecule?
The value was 117 s.

What about the “Median Retention Latency” value ([4]; Table 1, renin 1.0 μg/5 μL IVT) of the same molecule?
The value was 27 s.

What about the “Median Retention Latency” value ([4]; Table 1, renin 3.0 μg/5 μL IVT) of the same molecule?
The value was 56.5 s.

And the “Median Retention Latency” value ([4]; Table 1, renin 5.0 μg/5 μL IVT)?
Its value is 17 s.

What about the “Median Retention Latency” value ([4]; Table 2, renin 1.0 μg/5 μL IVT, Compound C 0 (renin-alone group)) of the same molecule?
The value was 48 s.

And the “Median Retention Latency” value ([4]; Table 3, renin 1.0 μg/5 μL IVT, Compound D 0 (renin-alone group))?
Its value is 32 s.

And the “Median Retention Latency” value ([4]; Table 4, renin 1.0 μg/5 μL IVT, EXP655 0 (renin-alone group))?
Its value is 15.5 s.

And the “memory deficit / amnesia in PA task” value ([4]; in words, renin IVT)?
The value was “produces a reliable memory deficit in rats; also recorded: dose-related amnesia”.
